Source: patent publication US7465448B2, “Chemokine receptor antagonists as therapeutic agents” (Medical College of Georgia Research Institute, Inc., priority 2002, dated 2008)
Entries after “also recorded” stand apart in the source; their conditions may differ. Blank lines part the entries; values can stand above or below the molecule they belong to.

Experiments:
CCR6 receptor = target: T1, CCR6 receptor (Homo sapiens, UniProt P51684); test: Mip-3α gradient migration of mixed DCs with or without blocking anti-CCR6 antibody (Example 9); assay type: cell-based
T1 construct: a mixture of both CD123-positive (CCR6-positive) and CD123-negative (CCR6-negative) cells; endogenous in cells; host or cells: human monocyte-derived dendritic cells (mixed adherent and non-adherent fractions)
T1 sequence (P51684 1-374): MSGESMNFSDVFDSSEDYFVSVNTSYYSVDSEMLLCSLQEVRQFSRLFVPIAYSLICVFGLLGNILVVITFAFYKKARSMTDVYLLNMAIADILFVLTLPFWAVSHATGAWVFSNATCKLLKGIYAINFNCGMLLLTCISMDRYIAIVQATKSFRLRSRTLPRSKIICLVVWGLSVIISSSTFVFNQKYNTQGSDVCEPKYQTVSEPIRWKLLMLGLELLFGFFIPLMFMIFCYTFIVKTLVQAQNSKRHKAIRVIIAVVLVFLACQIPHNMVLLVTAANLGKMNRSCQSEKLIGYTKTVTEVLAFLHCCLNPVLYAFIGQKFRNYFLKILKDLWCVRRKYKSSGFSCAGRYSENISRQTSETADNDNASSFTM
Source text: Monocyte-derived human dendritic cells (adherent and non-adherent fractions) were harvested and pooled, as described in Example 8, yielding a preparation comprising a mixture of both CD123-positive (CCR6-positive) and CD123-negative (CCR6-negative) cells. In Example 8, it was shown that a gradient of mip-3α caused selective migration of the CD123+ (CCR6+) population.
The mixed population of DCs was allowed to migrate across a porous membrane in response to a gradient of mip-3alpha, as described in Example 8. Different treatment groups received a commercial anti-CCR6 antibody (10 ug/ml), an isotype-matched control antibody at the same concentration, or no antibody. After 18 hrs, migrating cells (recovered in the lower chamber of the chemotaxis assay apparatus) were harvested, counted, and analyzed by flow cytometry for CD123 expression. CD123 was used as a marker to identify the IDO-expressing population, rather than CCR6, because the anti-CCR6 blocking antibody could artifactually interfere with immunofluorescent staining for CCR6. Since both markers are co-expressed on the IDO+ cells with a one-to-one correspondence, either marker gives equivalent information.

CCR6^+/IDO^+ APCs = test: Mip-3α-induced chemotaxis of dendritic cells, upper/lower chamber (Example 8); assay type: cell-based, human; details: 0.5×10^6 DCs/well, after 4 hours
Method: In this experiment, mip-3α-induced chemotaxis of CCR6^+/IDO^+ APCs was measured. Dendritic cells matured with a cytokine cocktail as described herein were used for a chemotaxis assay with mip-3α as the chemoattractant. Thus, monocytes were cultured in serum free medium (X-Vivo15) for five days in the presence of GMCSF (50 ng/mL) and IL-4 (50 ng/mL). After five days, cells were treated with a cytokine cocktail consisting of IL-1β (1870 U/mL), IL-6 (1000 U/mL), TNFα (1100 U/mL) and prostaglandin E2 (PGE2; 1.0 μg/mL), for two days. The cells were harvested and used for the chemotaxis assay. Control starting DCs were immunostained for CD123 and CCR6 (“Pre-Chemotaxis DCs”).
Mip-3α (0.5 μg/mL) was added to the different chambers and a defined number of DCs (0.5×10^6/well) were put on the upper chamber. After 4 hours, cells were counted in lower chamber of each group (Table 2). FACS immunostain was performed on all groups for CCR6 and CD123 (FIG. 7). […] Migration required a gradient of mip-3α from the upper chamber to the lower chamber, consistent with ligand induced chemotaxis.

CXCR4 = target: T2, CXCR4 (Homo sapiens, UniProt P61073); test: Yeast (S. cerevisiae) pheromone-pathway signaling assay with expressed CXCR4; assay type: cell-based; details: yeast strains expressing CXCR4-WT; not in control cells lacking the receptor
T2 construct: expressed in transfected cells; host or cells: Saccharomyces cerevisiae, CXCR4 subcloned in the Cp4258 vector, coupled through a mammalian/yeast hybrid G subunit
T2 sequence (P61073 whole entry, species assumed): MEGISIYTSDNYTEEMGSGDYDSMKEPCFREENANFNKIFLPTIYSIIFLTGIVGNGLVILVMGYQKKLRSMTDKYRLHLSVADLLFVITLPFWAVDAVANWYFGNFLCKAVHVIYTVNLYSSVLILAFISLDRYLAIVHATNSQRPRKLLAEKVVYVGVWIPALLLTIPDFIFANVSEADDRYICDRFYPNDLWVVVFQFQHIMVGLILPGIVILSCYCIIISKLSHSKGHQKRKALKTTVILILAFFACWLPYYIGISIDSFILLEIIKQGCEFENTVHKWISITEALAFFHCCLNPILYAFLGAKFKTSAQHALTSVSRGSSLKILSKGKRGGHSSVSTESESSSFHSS
Source text: For example, CCR6 can be functionally expressed in S. cerevisiae for the purpose of screening putative antagonists and for generating constitutively active mutants (CAMs). Similar studies have been performed by the inventors using related […] receptors CXCR4 and CCR5. Thus, chemokine receptors CXCR4 and CCR5 were expressed in a yeast strain in which these guanine nucleotide protein receptors (GPRs) were coupled to the mating pheromone response pathway by a mammalian/yeast hybrid G subunit. Consequently, stimulation of CXCR4 and CCR5 by the cognate ligands (SDF-1 and RANTES, respectively) activated signal transduction that results in histidine prototrophy or, in strains also carrying a pheromone-responsive FUS1-lacZ reporter gene, beta-galactosidase expression. In these experiments, SDF-1 stimulated histidine-independent growth and reporter gene expression in yeast strains expressing CXCR4-WT, but not in control cells lacking the receptor. […] All available CXCR4 antagonists blocked growth in histidine deficient medium resulting from CXCR4 activation and the induction of reporter gene expression stimulated by SDF-1.

IDO [1] = test: MLR with sorted mouse tumor-draining lymph node cell fractions and BM3 T cell responders, with or without 1MT; assay type: cell-based
Source text: (§1) Lymph node (LN) cells were harvested from inguinal LNs draining established B78.GM tumors. Control cells were harvested from the contralateral inguinal nodes in the same mouse. LN cells were irradiated and used as stimulators in allo-MLRs, with the responder cells being TCR-transgenic CD8^+ T cells from BM3 mice, as BM3 T cells recognize H-2K^b as an alloantigen (Tarazona, R., et al., Int. Immunol., 8:351-358, (1996)), and thus are reactive with all MHC class I positive cells from C57BL/6 tumor-bearing hosts. These cells are known by those of skill in the art to be a recognized assay system for IDO-mediated suppression of the T cell response (Munn, D. H., et al., Science, 297:1867-1870, (2002); Lee et al., Immunol., 107:1-9, (2002)). […] To determine the etiology of T cell suppression by APCs, tumor draining lymph node cells were harvested from B78.GM tumors and sorted into a B220^+ CD11c^+ plasmacytoid dendritic cell (pDC) fraction and a CD25^+CD4^+ regulatory T-cell (Treg) fraction. A third “all other” fraction was also collected. Each fraction was used as stimulators in an MLR with BM3 responders. […] Pooled draining LN cells (4 nodes) were stained and fractionated by 4-color cell sorting for the two populations shown in the top schematic. All other cells were collected in a third fraction. Each fraction was then used as stimulators in MLRs (FIG. 13), using 50,000 BM3 T cells as responders. The number of stimulators used in each MLR was adjusted to be the same as would have been present in 50,000 cells of the original LN preparation, based on the measured percentage of each sorted fraction. Thus, in the experiment shown, 500 cells of the sorted B220^+ CD11c^+ fraction were added per well, and 1500 cells of the CD25^+ CD4^+ fraction, while 48,000 cells of the “all other” fraction were used.

IDO [2] = target: T3, IDO (Mus musculus, UniProt P28776); test: as above; assay type: cell-based; details: wild-type host, B78.GM tumor-draining LN
T3 construct: from tissue; host or cells: tumor-draining inguinal lymph node cells (sorted fractions) of C57BL/6 mice bearing B78.GM tumors
T3 sequence (P28776 whole entry): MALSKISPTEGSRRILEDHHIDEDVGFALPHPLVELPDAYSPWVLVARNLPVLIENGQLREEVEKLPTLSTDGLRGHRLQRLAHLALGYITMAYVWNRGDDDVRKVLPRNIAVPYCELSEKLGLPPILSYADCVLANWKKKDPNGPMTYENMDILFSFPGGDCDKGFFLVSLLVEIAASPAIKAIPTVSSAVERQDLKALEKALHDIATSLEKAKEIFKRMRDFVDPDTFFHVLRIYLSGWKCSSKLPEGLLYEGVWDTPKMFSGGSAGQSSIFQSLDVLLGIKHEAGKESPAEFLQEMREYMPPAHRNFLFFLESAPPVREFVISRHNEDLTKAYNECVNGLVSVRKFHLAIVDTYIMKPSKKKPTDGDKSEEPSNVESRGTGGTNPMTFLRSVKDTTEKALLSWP
Source text: as §1

Increase of migration of CD123+ cells (CCR6 receptor; gradient of mip-3α, 18 hrs): > 10 fold
Purity of CD123+ cells in migrated population (CCR6 receptor; gradient of mip-3α, starting population 68% CD123+): 96%
Mip-3α induced migration without gradient (CCR6 receptor; mip-3α present on both sides of the membrane): substantially reduced
Molecule: Mip-3α: chemokine, ligand for the CCR6 chemokine receptor; chemotactic factor for immature dendritic cells
Number of Cells in Lower Chamber (CCR6^+/IDO^+ APCs; Mip-3α (0.5 μg/mL) in lower chamber only (gradient)): 2.96
Number of Cells in Lower Chamber (CCR6^+/IDO^+ APCs; Mip-3α (0.5 μg/mL) in upper and lower chamber): 0.98
Number of Cells in Lower Chamber (CCR6^+/IDO^+ APCs; Mip-3α (0.5 μg/mL) in upper chamber only): 0.73

Histidine-independent growth and reporter gene expression (CXCR4): stimulated
Molecule: SDF-1: cognate ligand of CXCR4

Suppression by B220+ CD11c+ (pDC) fraction (IDO [2]): fully reversed
Molecule: Cn1cc(CC(N)C(=O)O)c2ccccc21 (centres unmarked) [1-MT, 1-methyl-(D,L)-tryptophan]
Effect on MLR with LN fractions from IDO-knockout host (IDO [1]; IDO-KO host, any group): no enhancing effect
Suppression mediated by CD25+ CD4+ Tregs (IDO [1]; wild-type host, B78.GM tumor-draining LN): not affected
IDO-mediated suppression in mixing experiments (pDCs plus "all other" fraction) (IDO [2]): can be fully reversed; also recorded: again fully reversed
